Test results from the supplement of paper PMC10307832.

Experiments:
Assay in all cases: relative viability (nuclei count vs DMSO), 5 days (fraction); higher = more cells survive
[1] = compound: Cn1cnc2c(F)c(Nc3ccc(Br)cc3Cl)c(C(=O)NOCCO)cc21 [Selumetinib] + Nc1nc2[nH]cc(CCc3ccc(C(=O)N[C@@H](CCC(=O)O)C(=O)O)cc3)c2c(=O)[nH]1 [Pemetrexed] (partner 0.2 µM)
Procedure, shortened: (§1)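 The day after seeding in 1536-well plates, lung cancer cell lines were treated by pin tool with a single drug, or with a fixed anchor-drug dose together with five library-drug doses (not always all listed) in √10 steps. After 5 days, a combined fix-and-stain solution (final 0.05% Triton X-100, 1% formaldehyde, 1 ug/ml Hoechst) was added. Nuclei counted on 4× images gave relative viability as treated counts over vehicle counts, reported as the median of duplicate plates.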

[2] = compound: CC1(C)CCC(CN2CCN(c3ccc(C(=O)NS(=O)(=O)c4ccc(NCC5CCOCC5)c([N+](=O)[O-])c4)c(Oc4cnc5[nH]ccc5c4)c3)CC2)=C(c2ccc(Cl)cc2)C1 [Venetoclax] + CC(=O)c1c(C)c2cnc(Nc3ccc(N4CCNCC4)cn3)nc2n(C2CCCC2)c1=O [Palbociclib] (partner 0.5 µM)
Procedure, shortened: as §1

[3] = compound: Cn1cnc2c(F)c(Nc3ccc(Br)cc3Cl)c(C(=O)NOCCO)cc21 [Selumetinib] + COc1cc2c(Oc3ccc(NC(=O)C4(C(=O)Nc5ccc(F)cc5)CC4)cc3F)ccnc2cc1OCCCN1CCOCC1 [Foretinib] (partner 0.25 µM)
Procedure, shortened: as §1

[4] = compound: Cn1cnc2c(F)c(Nc3ccc(Br)cc3Cl)c(C(=O)NOCCO)cc21 [Selumetinib] + Cc1nc(Nc2ncc(C(=O)Nc3c(C)cccc3Cl)s2)cc(N2CCN(CCO)CC2)n1 [Dasatinib] (partner 0.075 µM)
Procedure, shortened: as §1

UMC-11
relative viability ([1]; first compound 0.02 µM): 0.771
relative viability ([1]; first compound 0.06325 µM): 0.788
relative viability ([1]; first compound 0.2 µM): 0.827
relative viability ([1]; first compound 0.6325 µM): 0.903
relative viability ([2]; first compound 0.01 µM): 0.37
relative viability ([2]; first compound 0.03162 µM): 0.334
relative viability ([2]; first compound 0.1 µM): 0.277
relative viability ([2]; first compound 0.3162 µM): 0.304
relative viability ([2]; first compound 1 µM): 0.324
relative viability ([3]; first compound 0.02 µM): 1.05
relative viability ([3]; first compound 0.06325 µM): 1.11
relative viability ([3]; first compound 0.2 µM): 1.05
relative viability ([3]; first compound 0.6325 µM): 1.04
relative viability ([4]; first compound 0.02 µM): 0.465
relative viability ([4]; first compound 0.06325 µM): 0.486
relative viability ([4]; first compound 0.2 µM): 0.474
relative viability ([4]; first compound 0.6325 µM): 0.547
